{
  "source": "patent US12345718B2",
  "about": "“Method for determining the haemoglobin content of an erythroid cell” (UNIVERSITÉ PARIS EST CRÉTEIL VAL DE MARNE, priority 2016, dated 2025)",
  "test_system": "HbF",
  "assay": "HbF content of each red blood cell by flow cytometry (HbF distribution) during treatment with hydroxyurea",
  "data": [
    {"compound": "NC(=O)NO", "note": "[hydroxyurea]", "values": [
      {"measurement": "% RBCs with HbF [8; 10[ pg", "setting": "patient 2, M3-M4", "result": 8.75, "unit": "% RBCs"},
      {"measurement": "% RBCs with HbF [10; 15[ pg", "setting": "patient 2, M3-M4", "result": 8.50, "unit": "% RBCs"},
      {"measurement": "% RBCs with HbF [15; 20[ pg", "setting": "patient 2, M3-M4", "result": 14.54, "unit": "% RBCs"},
      {"measurement": "% RBCs with HbF ≥20 pg", "setting": "patient 2, M3-M4", "result": 33.30, "unit": "% RBCs"},
      {"measurement": "change in red blood cells containing HbF content greater than 20 pg", "setting": "patient 2, at M6", "result": "clear increase"},
      {"measurement": "% RBCs with HbF [0; 2[ pg", "setting": "patient 2, ≥M6", "result": 4.98, "unit": "% RBCs"},
      {"measurement": "% RBCs with HbF [2; 4[ pg", "setting": "patient 2, ≥M6", "result": 7.04, "unit": "% RBCs"},
      {"measurement": "% RBCs with HbF [4; 6[ pg", "setting": "patient 2, ≥M6", "result": 5.53, "unit": "% RBCs"},
      {"measurement": "% RBCs with HbF [6; 8[ pg", "setting": "patient 2, ≥M6", "result": 4.85, "unit": "% RBCs"},
      {"measurement": "% RBCs with HbF [8; 10[ pg", "setting": "patient 2, ≥M6", "result": 4.56, "unit": "% RBCs"},
      {"measurement": "% RBCs with HbF [10; 15[ pg", "setting": "patient 2, ≥M6", "result": 7.48, "unit": "% RBCs"},
      {"measurement": "% RBCs with HbF [15; 20[ pg", "setting": "patient 2, ≥M6", "result": 9.75, "unit": "% RBCs"},
      {"measurement": "% RBCs with HbF ≥20 pg", "setting": "patient 2, ≥M6", "result": 55.81, "unit": "% RBCs"},
      {"measurement": "% RBCs with HbF [0; 2[ pg", "setting": "patient 11, D15-M1", "result": 55.38, "unit": "% RBCs"},
      {"measurement": "% RBCs with HbF [2; 4[ pg", "setting": "patient 11, D15-M1", "result": 23.31, "unit": "% RBCs"},
      {"measurement": "% RBCs with HbF [4; 6[ pg", "setting": "patient 11, D15-M1", "result": 6.25, "unit": "% RBCs"},
      {"measurement": "% RBCs with HbF [6; 8[ pg", "setting": "patient 11, D15-M1", "result": 3.07, "unit": "% RBCs"},
      {"measurement": "% RBCs with HbF [8; 10[ pg", "setting": "patient 11, D15-M1", "result": 2.55, "unit": "% RBCs"},
      {"measurement": "% RBCs with HbF [10; 15[ pg", "setting": "patient 11, D15-M1", "result": 2.24, "unit": "% RBCs"},
      {"measurement": "% RBCs with HbF [15; 20[ pg", "setting": "patient 11, D15-M1", "result": 4.42, "unit": "% RBCs"},
      {"measurement": "% RBCs with HbF ≥20 pg", "setting": "patient 11, D15-M1", "result": 2.78, "unit": "% RBCs"},
      {"measurement": "% RBCs with HbF [0; 2[ pg", "setting": "patient 11, M3-M4", "result": 48.83, "unit": "% RBCs"},
      {"measurement": "% RBCs with HbF [2; 4[ pg", "setting": "patient 11, M3-M4", "result": 31.73, "unit": "% RBCs"},
      {"measurement": "% RBCs with HbF [4; 6[ pg", "setting": "patient 11, M3-M4", "result": 9.30, "unit": "% RBCs"},
      {"measurement": "% RBCs with HbF [6; 8[ pg", "setting": "patient 11, M3-M4", "result": 4.32, "unit": "% RBCs"},
      {"measurement": "% RBCs with HbF [8; 10[ pg", "setting": "patient 11, M3-M4", "result": 2.04, "unit": "% RBCs"},
      {"measurement": "% RBCs with HbF [10; 15[ pg", "setting": "patient 11, M3-M4", "result": 0.72, "unit": "% RBCs"},
      {"measurement": "% RBCs with HbF [15; 20[ pg", "setting": "patient 11, M3-M4", "result": 2.46, "unit": "% RBCs"},
      {"measurement": "% RBCs with HbF ≥20 pg", "setting": "patient 11, M3-M4", "result": 0.59, "unit": "% RBCs"},
      {"measurement": "RBCs >6 pg HbF", "setting": "patient 11, at 6 months of treatment", "result": 57, "unit": "%"},
      {"measurement": "decrease of red blood cells with HbF content of less than 2 pg", "setting": "patient 11, at M6", "result": "approximately 73%"},
      {"measurement": "% RBCs with HbF [0; 2[ pg", "setting": "patient 11, ≥M6", "result": 12.93, "unit": "% RBCs"},
      {"measurement": "% RBCs with HbF [2; 4[ pg", "setting": "patient 11, ≥M6", "result": 17.62, "unit": "% RBCs"},
      {"measurement": "% RBCs with HbF [4; 6[ pg", "setting": "patient 11, ≥M6", "result": 11.85, "unit": "% RBCs"},
      {"measurement": "% RBCs with HbF [6; 8[ pg", "setting": "patient 11, ≥M6", "result": 8.05, "unit": "% RBCs"},
      {"measurement": "% RBCs with HbF [8; 10[ pg", "setting": "patient 11, ≥M6", "result": 6.08, "unit": "% RBCs"},
      {"measurement": "% RBCs with HbF [10; 15[ pg", "setting": "patient 11, ≥M6", "result": 6.13, "unit": "% RBCs"},
      {"measurement": "% RBCs with HbF [15; 20[ pg", "setting": "patient 11, ≥M6", "result": 9.77, "unit": "% RBCs"},
      {"measurement": "% RBCs with HbF ≥20 pg", "setting": "patient 11, ≥M6", "result": 27.57, "unit": "% RBCs"},
      {"measurement": "% RBCs with HbF [0; 2[ pg", "setting": "patient 24, D15-M1", "result": 53.17, "unit": "% RBCs"},
      {"measurement": "% RBCs with HbF [2; 4[ pg", "setting": "patient 24, D15-M1", "result": 11.57, "unit": "% RBCs"},
      {"measurement": "% RBCs with HbF [4; 6[ pg", "setting": "patient 24, D15-M1", "result": 6.69, "unit": "% RBCs"},
      {"measurement": "% RBCs with HbF [6; 8[ pg", "setting": "patient 24, D15-M1", "result": 5.58, "unit": "% RBCs"},
      {"measurement": "% RBCs with HbF [8; 10[ pg", "setting": "patient 24, D15-M1", "result": 4.50, "unit": "% RBCs"},
      {"measurement": "% RBCs with HbF [10; 15[ pg", "setting": "patient 24, D15-M1", "result": 3.89, "unit": "% RBCs"},
      {"measurement": "% RBCs with HbF [15; 20[ pg", "setting": "patient 24, D15-M1", "result": 7.56, "unit": "% RBCs"},
      {"measurement": "% RBCs with HbF ≥20 pg", "setting": "patient 24, D15-M1", "result": 7.04, "unit": "% RBCs"},
      {"measurement": "% RBCs with HbF [0; 2[ pg", "setting": "patient 24, M3-M4", "result": 44.56, "unit": "% RBCs"},
      {"measurement": "% RBCs with HbF [2; 4[ pg", "setting": "patient 24, M3-M4", "result": 24.93, "unit": "% RBCs"},
      {"measurement": "% RBCs with HbF [4; 6[ pg", "setting": "patient 24, M3-M4", "result": 12.53, "unit": "% RBCs"},
      {"measurement": "% RBCs with HbF [6; 8[ pg", "setting": "patient 24, M3-M4", "result": 5.81, "unit": "% RBCs"},
      {"measurement": "% RBCs with HbF [8; 10[ pg", "setting": "patient 24, M3-M4", "result": 3.09, "unit": "% RBCs"},
      {"measurement": "% RBCs with HbF [10; 15[ pg", "setting": "patient 24, M3-M4", "result": 1.87, "unit": "% RBCs"},
      {"measurement": "% RBCs with HbF [15; 20[ pg", "setting": "patient 24, M3-M4", "result": 3.81, "unit": "% RBCs"},
      {"measurement": "% RBCs with HbF ≥20 pg", "setting": "patient 24, M3-M4", "result": 3.41, "unit": "% RBCs"},
      {"measurement": "RBCs >6 pg HbF", "setting": "patient 24, at 6 months of treatment", "result": 24, "unit": "%"},
      {"measurement": "decrease of red blood cells with HbF content of less than 2 pg", "setting": "patient 24, at M6", "result": "approximately 40%"},
      {"measurement": "% RBCs with HbF [0; 2[ pg", "setting": "patient 24, ≥M6", "result": 36.98, "unit": "% RBCs"},
      {"measurement": "% RBCs with HbF [2; 4[ pg", "setting": "patient 24, ≥M6", "result": 25.28, "unit": "% RBCs"},
      {"measurement": "% RBCs with HbF [4; 6[ pg", "setting": "patient 24, ≥M6", "result": 13.64, "unit": "% RBCs"},
      {"measurement": "% RBCs with HbF [6; 8[ pg", "setting": "patient 24, ≥M6", "result": 6.92, "unit": "% RBCs"},
      {"measurement": "% RBCs with HbF [8; 10[ pg", "setting": "patient 24, ≥M6", "result": 3.93, "unit": "% RBCs"},
      {"measurement": "% RBCs with HbF [10; 15[ pg", "setting": "patient 24, ≥M6", "result": 2.70, "unit": "% RBCs"},
      {"measurement": "% RBCs with HbF [15; 20[ pg", "setting": "patient 24, ≥M6", "result": 5.36, "unit": "% RBCs"},
      {"measurement": "% RBCs with HbF ≥20 pg", "setting": "patient 24, ≥M6", "result": 5.20, "unit": "% RBCs"},
      {"measurement": "patients in whom HbF distribution becomes homogeneous", "setting": "starting from M2", "result": 1, "unit": "patient"}
    ]}
  ]
}
